# Experimental data published in publication PMC6915745, “TRIB3 supports breast cancer stemness by suppressing FOXO1 degradation and enhancing SOX2 transcription” (Nature Communications, 2019).
# Read-outs that look alike come from different tables or passages of the source. Peptide text beside a SMILES is read from it. * marks the point of attachment. Cbz = O=C(OCc1ccccc1)*
# How the values were obtained:
# FOXO1 [1] = assay: FOXO1 protein stability (cycloheximide chase), MCF7 cells; assay type: cell-based, human; settings: for degradation of FOXO1: CHX 20 μM plus BAF 200 nM or MG132 10 μM, in words; for FOXO1 half-life: CHX, authors' reply to reviewers, control about 3 hr
# Procedure: Fig. 5 TRIB3 stabilizes the FOXO1 protein by suppressing its ubiquitination. a, b HMLE cells transfected with a TRIB3-expressing vector vs. a control vector (a) or MCF7 cells transfected with TRIB3-shRNA vs. CTRL-shRNA (b) were incubated with 20 μM cycloheximide (CHX) for the indicated times. c, d The effect of TRIB3 depletion on FOXO1 degradation in vitro. MCF7 cells (c) were incubated with CHX (20 μM), CHX plus bafilomycin (BAF, 200 nM), or MG132 (10 μM) for the indicated times. Control or TRIB3-silenced MCF7 cells (d, top) and MDA-MB-231 cells (d, bottom) were incubated with DMSO, 200 nM BAF, or 10 μM MG132 for 8 h. The indicated proteins were detected by immunoblotting. e, f FOXO1 activity in HMLE cells (e) transfected with a control vector or a TRIB3-expressing vector, or in MCF7 cells (f) transfected with CTRL-shRNA or TRIB3-shRNA and either a control vector or a FOXO1-expressing vector. g, h The effect of TRIB3 on FOXO1 ubiquitination. HMLE (g) or MCF7 cells (h) were transfected with the indicated plasmid. His-ubiquitin-conjugated proteins were pulled down from cell lysates. Total protein lysates and Ni-NTA-agarose eluates were immunoblotted for FLAG, His, and TRIB3. Source data are provided as a Source Data file. […] I left them out because their labels are genetic constructs, not substances; their digits are also small
# (§1) Cycloheximide (CHX; Sigma Aldrich, R750107) was used as a protein synthesis inhibitor to assess the stability of the existing proteins. To assess protein stability, cells were treated with 20 μM CHX and the proteasome inhibitor MG132 (Sigma Aldrich, R750107) at 10 μM or the autophagy inhibitor BAF (Sigma Aldrich, B1793) at 200 nM for the indicated times. Protein expression was assessed via immunoblot analysis with cell lysates (20–60 μg) prepared in RIPA lysis buffer containing protease inhibitors (Roche) using anti-SOX2 (3529), anti-NANOG (4903), anti-OCT4 (2750), anti-KLF4 (4038), anti-c-Myc (13987), anti-FOXO1 (2880), anti-p-FOXO1 (9461), anti-AKT (4685), anti-p-AKT (4060), anti-β-ACTIN (4970), anti-Ubiquitin (3936), or anti-LaminA/C (4777) antibodies from CST; anti-TRIB3 antibody (ab75846) from Abcam; and anti-Trib3 antibody (PA5-15480) from Thermo Fisher Scientific[59]. All antibodies were used at 1:1000 dilution, with the exception of anti-β-Actin antibodies, which were used at 1:2000 dilution. The protein concentrations were determined by BCA Protein Assay Kits (Pierce). Proteins were separated by SDS-polyacrylamide gel electrophoresis (PAGE) and transferred to polyvinylidene difluoride membrane.
# FOXO1 [2] = assay: FOXO1 immunoblot in control or TRIB3-silenced MDA-MB-231 cells with BAF or MG132; assay type: cell-based; settings: BAF 200 nM or MG132 10 μM, 8 h, in words
# Procedure: (§2) Fig. 5 TRIB3 stabilizes the FOXO1 protein by suppressing its ubiquitination. a, b HMLE cells transfected with a TRIB3-expressing vector vs. a control vector (a) or MCF7 cells transfected with TRIB3-shRNA vs. CTRL-shRNA (b) were incubated with 20 μM cycloheximide (CHX) for the indicated times. c, d The effect of TRIB3 depletion on FOXO1 degradation in vitro. MCF7 cells (c) were incubated with CHX (20 μM), CHX plus bafilomycin (BAF, 200 nM), or MG132 (10 μM) for the indicated times. Control or TRIB3-silenced MCF7 cells (d, top) and MDA-MB-231 cells (d, bottom) were incubated with DMSO, 200 nM BAF, or 10 μM MG132 for 8 h. The indicated proteins were detected by immunoblotting. e, f FOXO1 activity in HMLE cells (e) transfected with a control vector or a TRIB3-expressing vector, or in MCF7 cells (f) transfected with CTRL-shRNA or TRIB3-shRNA and either a control vector or a FOXO1-expressing vector. g, h The effect of TRIB3 on FOXO1 ubiquitination. HMLE (g) or MCF7 cells (h) were transfected with the indicated plasmid. His-ubiquitin-conjugated proteins were pulled down from cell lysates. Total protein lysates and Ni-NTA-agarose eluates were immunoblotted for FLAG, His, and TRIB3. […]
# (§3) Cycloheximide (CHX; Sigma Aldrich, R750107) was used as a protein synthesis inhibitor to assess the stability of the existing proteins. […] The protein concentrations were determined by BCA Protein Assay Kits (Pierce). […]
# FOXO1 [3] = assay: FOXO1 immunoblot in control or TRIB3-silenced MCF7 cells with BAF or MG132; assay type: cell-based, human; settings: BAF 200 nM or MG132 10 μM, 8 h, in words
# Procedure: as §2, §3
# MCF7 cells = assay: TRIB3/AKT/FOXO1/SOX2 axis after IL-6, CoCl2 or high glucose, MCF7 cells (WB); assay type: cell-based, human
# [4] = test system: TRIB3-silenced MCF7 cells; assay: Immunoblot of AKT1/FOXO1/SOX2, TRIB3-silenced MCF7 cells with AKT1 inhibitor MK2206; assay type: cell-based, human; settings: Fig.6e, MCF7, TRIB3-shRNA, v.s CTRL-shRNA+DMSO
# Excerpt: (§4) Fig. 6 TRIB3 abrogates the AKT-FOXO1 interaction. a Supervised clustering of MCF7 cells transfected with CTRL-shRNA or TRIB3-shRNA using the log2-transformed values for genes in the FOXO1 upstream pathway, including AMPK, ERK, PI3K, p38, and JNK clustered genes expressed in all samples. Each column represents a separate case. Z-scores from IPA depicting the subnetwork gene expression differences between CTRL-shRNA and TRIB3-shRNA cases. The Z-score heat map depicts the five FOXO1 upstream subnetworks. Each row represents the data for the subnetwork indicated in the right margin. b, c TRIB3 inhibited the activity of AKT1 in BCCs. The indicated stable expression cell extracts were prepared and the levels of the indicated proteins were detected by immunoblotting. d, e The effects of the AKT1 agonist or antagonist for TRIB3-FOXO1-SOX2 axis in BCCs. The indicated cells were treated with the AKT1 agonist SC79 or the antagonist MK2206 for 24 h. […] HMLE cell extracts were IP with an anti-AKT1 Ab and blotted with an anti-TRIB3 or anti-FOXO1 Ab in the presence of the indicated concentration of the TRIB3-GST protein. Data are shown as the mean ± SEM; P > 0.05 was considered not significant (NS); *P < 0.05, **P < 0.01, and ***P < 0.001 compared with the vector or CTRL-shRNA group. Source data are provided as a Source Data file.
# as §1
# [5] = test system: HMLE cells overexpressing TRIB3; assay: Immunoblot of AKT1/FOXO1/SOX2, HMLE cells with AKT1 agonist SC79; assay type: cell-based, human; settings: for Relative fold change AKT1 / Relative fold change FOXO1 / Relative fold change SOX2 / Relative fold change TRIB3 / Relative fold change p-AKT(473S) / Relative fold change p-FOXO1(256S): Fig.6d, HMLE, TRIB3-shRNA, v.s CTRL-shRNA+DMSO
# Excerpt: as §4, §1
# TRIB3 = TRIB3 expression after cytokines or stressors, MCF7 cells (WB); assay type: cell-based, human; settings: cytokines 8 hr, high glucose 24 hr
# Procedure: as §1, with “membrane. […]” for “membrane.”
# (f, g) The expression of
# TRIB3 in MCF7 cells (top) or MDA-MB-231 cells (bottom) treated with various concentrations of IL6 for
# 8 hr (f) or 10 ng/ml IL-6 for different amounts of time (g) was detected by WB. (h) Silencing TRIB3
# decreased the tumor sphere formation ability of MCF7 cells with or without IL-6 stimulation. […]
# Data are shown as the mean ± SEM; P>0.05 was considered not significant (N.S.); *P<0.05, **P<0.01
# and ***P<0.001, compared with the con group in panels d-f. Source data are provided as a Source Data
# TRIB3-GST protein = target: T1, TRIB3-GST protein (UniProt Q96RU7 1-358); assay: SPR
# T1 chain: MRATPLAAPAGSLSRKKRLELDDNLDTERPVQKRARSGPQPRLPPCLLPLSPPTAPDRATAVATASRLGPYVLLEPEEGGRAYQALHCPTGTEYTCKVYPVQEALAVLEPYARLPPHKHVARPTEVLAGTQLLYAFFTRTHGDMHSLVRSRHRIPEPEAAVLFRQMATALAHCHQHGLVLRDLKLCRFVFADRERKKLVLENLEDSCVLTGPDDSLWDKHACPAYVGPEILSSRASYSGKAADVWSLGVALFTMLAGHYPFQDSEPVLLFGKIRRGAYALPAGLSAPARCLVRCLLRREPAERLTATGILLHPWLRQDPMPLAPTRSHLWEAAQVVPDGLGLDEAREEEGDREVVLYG
# [6] = HMLE cells overexpressing TRIB3, 24 h
molecule,measurement,setting,value
"CO/C1=C\C(C)=C\[C@@H](C)[C@@H](O)[C@@H](C)C/C(C)=C/C=C/[C@H](OC)[C@@H]([C@@H](C)[C@@H](O)[C@H](C)[C@@]2(O)C[C@@H](O)[C@H](C)[C@@H](C(C)C)O2)OC1=O [BAF, bafilomycin]",degradation of FOXO1,FOXO1 [1],not by the autophagy inhibitor bafilomycin
same,inhibition of FOXO1 reduction caused by TRIB3 silencing,FOXO1 [2],not by BAF
same,inhibition of FOXO1 reduction caused by TRIB3 silencing,FOXO1 [3],not by BAF
"[Cl-].[Cl-].[Co+2] [CoCl2, reference compound]",expressions of FOXO1 and SOX2,MCF7 cells,enhance
O=c1cc(N2CCOCC2)oc2c(-c3ccccc3)cccc12 [LY294002],FOXO1 half-life,FOXO1 [1],4.4 h
CC(C)C[C@@H](C=O)NC(=O)[C@H](CC(C)C)NC(=O)[C@H](CC(C)C)NC(=O)OCc1ccccc1 [MG132] (Cbz-Leu-Leu-Leu-aldehyde),degradation of FOXO1,FOXO1 [1],inhibited by the proteasome inhibitor MG132
same,FOXO1 half-life,FOXO1 [1],6 h
same,inhibition of FOXO1 reduction caused by TRIB3 silencing,FOXO1 [2],inhibited by MG132
same,inhibition of FOXO1 reduction caused by TRIB3 silencing,FOXO1 [3],inhibited by MG132
NC1(c2ccc(-c3nc4ccn5c(=O)[nH]nc5c4cc3-c3ccccc3)cc2)CCC1 [MK-2206],Relative fold change AKT1,[4]; replicate 1,0.657
same,Relative fold change FOXO1,[4]; replicate 1,1.341
same,Relative fold change SOX2,[4]; replicate 1,0.604
same,Relative fold change TRIB3,[4]; replicate 1,0.180
same,Relative fold change p-AKT(473S),[4]; replicate 1,0.243
same,Relative fold change p-FOXO1(256S),[4]; replicate 1,0.564
same,Relative fold change AKT1,[4]; replicate 2,0.717
same,Relative fold change FOXO1,[4]; replicate 2,1.441
same,Relative fold change SOX2,[4]; replicate 2,0.664
same,Relative fold change TRIB3,[4]; replicate 2,0.200
same,Relative fold change p-AKT(473S),[4]; replicate 2,0.263
same,Relative fold change p-FOXO1(256S),[4]; replicate 2,0.614
same,Relative fold change AKT1,[4]; replicate 3,0.597
same,Relative fold change FOXO1,[4]; replicate 3,1.241
same,Relative fold change SOX2,[4]; replicate 3,0.544
same,Relative fold change TRIB3,[4]; replicate 3,0.160
same,Relative fold change p-AKT(473S),[4]; replicate 3,0.223
same,Relative fold change p-FOXO1(256S),[4]; replicate 3,0.514
CCOC(=O)C1=C(N)Oc2ccc(Cl)cc2C1C(C#N)C(=O)OCC (stereo not drawn) [SC79],Relative fold change AKT1,[5]; replicate 1,1.9500
same,Relative fold change FOXO1,[5]; replicate 1,0.4880
same,Relative fold change SOX2,[5]; replicate 1,5.8119
same,Relative fold change TRIB3,[5]; replicate 1,6.9492
same,Relative fold change p-AKT(473S),[5]; replicate 1,1.6733
same,Relative fold change p-FOXO1(256S),[5]; replicate 1,1.9882
same,Relative fold change AKT1,[5]; replicate 2,2.1500
same,Relative fold change FOXO1,[5]; replicate 2,0.5280
same,Relative fold change SOX2,[5]; replicate 2,6.4119
same,Relative fold change TRIB3,[5]; replicate 2,7.5492
same,Relative fold change p-AKT(473S),[5]; replicate 2,1.7733
same,Relative fold change p-FOXO1(256S),[5]; replicate 2,2.1782
same,Relative fold change AKT1,[5]; replicate 3,1.7500
same,Relative fold change FOXO1,[5]; replicate 3,0.4480
same,Relative fold change SOX2,[5]; replicate 3,5.2119
same,Relative fold change TRIB3,[5]; replicate 3,6.3492
same,Relative fold change p-AKT(473S),[5]; replicate 3,1.5733
same,Relative fold change p-FOXO1(256S),[5]; replicate 3,1.7982
same,FOXO1 and SOX2 expression,[5]; [6],inhibited FOXO1 and SOX2 expression
same,activity of AKT1 S473 and FOXO1 S256,[5]; [6],rescued the activity of AKT1^S473 and FOXO1^S256
"OC[C@H]1OC(O)[C@H](O)[C@@H](O)[C@@H]1O (stereo partly drawn) [high glucose, glucose]",TRIB3 expression,TRIB3,enhanced TRIB3 expression in MCF7 cells
same,expressions of FOXO1 and SOX2,"MCF7 cells; MCF7 cells, IL-6 12 hr, CoCl2 24 hr, high glucose 24 hr, WB",enhanced expressions of FOXO1 and SOX2
same,expressions of FOXO1 and SOX2,"MCF7 cells; MCF7 cells, IL-6 12 hr, CoCl2 24 hr, high glucose 24 hr, WB, listed as high-glucose",enhance
same,activity of FOXO1 S256,"MCF7 cells; MCF7 cells, IL-6 12 hr, high glucose 24 hr, WB",reduced the activity of FOXO1^S256
IL-1β: cytokine,TRIB3 expression,TRIB3,enhanced TRIB3 expression in MCF7 cells
transforming growth factor-β,TRIB3 expression,TRIB3,enhanced TRIB3 expression in MCF7 cells
tumor necrosis factor-α,TRIB3 expression,TRIB3,enhanced TRIB3 expression in MCF7 cells
VAHTLTENRVLQN [peptide Ae],Kd,TRIB3-GST protein,300 nM
EVAHTLTENRALQN [M10],Kd,TRIB3-GST protein,750 nM
EVAATLTENRVLQN [M3],Kd,TRIB3-GST protein,170 nM
